Results reported in paper PMC9319741, “A Novel ERK2 Degrader Z734 Induces Apoptosis of MCF–7 Cells via the HERC3/p53 Signaling Pathway” (Molecules, 2022).

What was measured:
[1] = molecular target: T1, ERK2 (Homo sapiens, UniProt P28482); experiment: IMAP TR-FRET enzymatic kinase (cascade) assay; assay type: biochemical
T1 construct: gene MAPK1

[2] = molecular target: T2, ERK1 (Homo sapiens, UniProt P27361); experiment: IMAP TR-FRET enzymatic kinase (cascade) assay; assay type: biochemical
T2 construct: gene MAPK3
T2 sequence (P27361 2-379): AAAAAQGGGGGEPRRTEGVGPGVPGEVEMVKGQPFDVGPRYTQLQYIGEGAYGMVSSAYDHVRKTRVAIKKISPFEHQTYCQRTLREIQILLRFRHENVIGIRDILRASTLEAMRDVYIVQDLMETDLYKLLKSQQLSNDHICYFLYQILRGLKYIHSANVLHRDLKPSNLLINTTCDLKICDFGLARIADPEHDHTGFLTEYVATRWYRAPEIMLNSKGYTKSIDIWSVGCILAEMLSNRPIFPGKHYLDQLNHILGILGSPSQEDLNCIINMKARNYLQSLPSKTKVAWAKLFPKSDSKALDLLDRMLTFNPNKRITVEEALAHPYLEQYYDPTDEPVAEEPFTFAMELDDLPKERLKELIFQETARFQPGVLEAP

T1 sequence (P28482 2-360): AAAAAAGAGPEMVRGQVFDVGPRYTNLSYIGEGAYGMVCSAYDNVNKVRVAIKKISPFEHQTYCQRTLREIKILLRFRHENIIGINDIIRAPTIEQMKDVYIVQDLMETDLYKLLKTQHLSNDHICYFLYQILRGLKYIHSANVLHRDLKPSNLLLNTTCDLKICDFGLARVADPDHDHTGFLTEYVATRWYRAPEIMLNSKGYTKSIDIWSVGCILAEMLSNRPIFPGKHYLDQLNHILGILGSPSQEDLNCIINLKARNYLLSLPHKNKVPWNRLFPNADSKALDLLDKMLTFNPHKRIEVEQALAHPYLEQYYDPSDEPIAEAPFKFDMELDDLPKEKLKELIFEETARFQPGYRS

IC50 [1]: 3 nM | IC50 [2]: 9 nM
Structure (SMILES): CC(=O)NC(CC(=O)N(c1ccccc1)c1nc2ccccc2s1)c1ccccc1 (centres unmarked) [Z734]
